From publication PMC1892040 (PLoS Medicine, 2007)
Values joined by “and” are separate entries in the source; they are usually repeats but may differ in a detail not shown here. Identical values can stand only once. “Also recorded” adds a separate entry of the source. Like-named read-outs stand apart in the source and are kept apart here.

Legend:
[1] = system: adult Schistosoma mansoni worms; experiment: Inhibitor studies on cultured adult worms (unpairing, mortality); assay type: cell-based
Procedure: […] Control worms were treated with equal amounts of carrier. Worms were subsequently observed for unpairing, motility, and mortality, and were collected at the indicated time intervals for analysis. Worms were homogenized by sonication in PBS and homogenates were assayed for TrxR and GR activities as described above. […] Each assay was done in triplicate and each experiment was done three times.

[2] = system: lactate dehydrogenase (LDH); experiment: LDH activity in homogenates of treated worms; assay type: cell-based, Schistosoma mansoni; conditions: 10 μM AF
GSH peroxidase (GPx) = experiment: GPx activity in homogenates of treated worms; assay type: cell-based, Schistosoma mansoni; conditions: 10 μM AF
S. mansoni = experiment: Inhibitor studies on infected mice (worm burden); assay type: in vivo, Schistosoma mansoni; conditions: for Total Worm Burden, Number of Worms, Mean ± SD / Total Worm Burden Reduction: 6 mg/kg twice daily for 9 d; for Total Worm Burden, Number of Worms, Mean ± SD: intraperitoneally; for Total Worm Burden Reduction: versus control, 6 mg/kg
Procedure: Mice (14-wk-old females; C57BL/6 in experiment 1, NIH-Swiss in experiment 2) infected with 60 S. mansoni cercariae were injected intraperitoneally with 6 mg/kg of AF twice daily for 9 d, beginning 7 wk post infection. Infected control mice were injected with equal amounts of carrier. Mice were perfused 1 wk after the final dose of AF and worm burdens were determined.

Human TrxR = biological target: T1, Human TrxR (Homo sapiens, UniProt Q16881); conditions: read-out: IC50 Human TrxR, DTNB/Trx; cited from earlier work
T1 sequence (Q16881 1-499 isoform Q16881-5): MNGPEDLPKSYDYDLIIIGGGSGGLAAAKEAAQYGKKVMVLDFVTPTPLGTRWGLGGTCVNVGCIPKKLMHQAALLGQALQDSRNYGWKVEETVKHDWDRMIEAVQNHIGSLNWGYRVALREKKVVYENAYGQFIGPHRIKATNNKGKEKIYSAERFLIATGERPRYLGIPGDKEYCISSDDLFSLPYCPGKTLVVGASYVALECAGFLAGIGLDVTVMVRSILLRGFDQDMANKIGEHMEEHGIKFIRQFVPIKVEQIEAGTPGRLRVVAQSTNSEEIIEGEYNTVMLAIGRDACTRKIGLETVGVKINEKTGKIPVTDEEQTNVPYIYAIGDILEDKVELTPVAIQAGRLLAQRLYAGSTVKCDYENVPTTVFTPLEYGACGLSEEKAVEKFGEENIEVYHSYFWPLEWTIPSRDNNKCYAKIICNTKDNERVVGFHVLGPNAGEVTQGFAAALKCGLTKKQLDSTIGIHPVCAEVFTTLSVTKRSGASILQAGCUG

mammalian cells = system: mammalian cells; set-up: method as in PMID 14561156; conditions: cultured in 10 μM AF; cited from earlier work
S. mansoni TGR [3] = biological target: T2, S. mansoni TGR (Schistosoma mansoni, UniProt Q962Y6); assay type: biochemical; set-up: The entire TGR ORF plus the SECIS element was subcloned into pET-24a; made in house; host or cells: Escherichia coli BL21(DE3) with pSUABC; conditions: read-out: IC50 S. mansoni TGR, GSSG (GR activity); 100 μM GSSG, 15 min preincubation with 100 μM NADPH
T2 sequence (Q962Y6 1-598): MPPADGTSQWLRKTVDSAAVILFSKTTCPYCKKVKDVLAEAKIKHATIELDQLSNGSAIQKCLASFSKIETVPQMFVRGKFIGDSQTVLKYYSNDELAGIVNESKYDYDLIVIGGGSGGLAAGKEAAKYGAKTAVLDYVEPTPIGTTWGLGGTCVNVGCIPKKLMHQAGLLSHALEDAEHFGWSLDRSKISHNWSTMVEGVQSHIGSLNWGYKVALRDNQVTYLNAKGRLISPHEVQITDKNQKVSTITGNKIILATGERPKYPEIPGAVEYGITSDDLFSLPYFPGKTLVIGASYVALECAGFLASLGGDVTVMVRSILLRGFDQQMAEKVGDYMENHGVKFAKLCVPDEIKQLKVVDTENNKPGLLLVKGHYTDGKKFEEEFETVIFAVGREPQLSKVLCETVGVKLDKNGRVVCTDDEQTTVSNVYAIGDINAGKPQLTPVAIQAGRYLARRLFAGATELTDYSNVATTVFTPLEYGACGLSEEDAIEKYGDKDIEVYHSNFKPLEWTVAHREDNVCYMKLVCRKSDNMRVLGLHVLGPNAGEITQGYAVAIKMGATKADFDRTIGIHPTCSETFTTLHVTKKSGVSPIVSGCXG
Procedure: (§1) Assays were performed at 25 °C in 0.1 M potassium phosphate (pH 7.4), 10 mM EDTA using 100 μM NADPH unless otherwise stated.
(§2) Initial inhibitor screens were conducted in 200 μl volumes in 96 well plates with 50 μM inhibitor, 100 μM NADPH, and 5 nM TGR in 0.1 M potassium phosphate (pH 7.4), 10 mM EDTA with a preincubation step of 15 min. […] All assays were done in triplicate.

S. mansoni TGR [4] = biological target: T2, S. mansoni TGR; experiment: IC50, Grx activity of TGR (HED assay), 15 min preincubation; assay type: biochemical; set-up: The entire TGR ORF plus the SECIS element was subcloned into pET-24a; made in house; host or cells: Escherichia coli BL21(DE3) with pSUABC; conditions: 8 mM HED plus 1 mM GSH, 15 min preincubation with 100 μM NADPH
Procedure: as §1, §2

CC(=O)OC[C@H]1O[C@@H]([S-])[C@H](OC(C)=O)[C@@H](OC(C)=O)[C@@H]1OC(C)=O.CCP(CC)CC.[Au+] [AF, auranofin]
Time to adult worm death ([1]; 5 μM AF): 24 h
Mortality of adult worms after 6 h ([1]; 10 μM AF): 83%
Mortality of adult worms after 9 h ([1]; 10 μM AF): 100%
Time to unpairing of male and female worms ([1]; 10 μM AF): 1 h
Concentration able to kill parasites rapidly in culture ([1]; physiological concentration, abstract): 5 µM
LDH activity in worm homogenates [2]: no significant deviation from controls
GPx activity in worm homogenates (GSH peroxidase (GPx)): no significant deviation from controls; also recorded: not inhibited
Total Worm Burden, Number of Worms, Mean ± SD (S. mansoni; C57BL/6 mice): 12 ± 7.8
Total Worm Burden Reduction (S. mansoni; C57BL/6 mice, p < 0.015): 59% and 59^a %
Total Worm Burden, Number of Worms, Mean ± SD (S. mansoni; NIH-Swiss mice): 8.6 ± 1.7
Total Worm Burden Reduction (S. mansoni; NIH-Swiss mice, p < 0.001): 63% and 63^b %
Worm burden reductions in infected mice (S. mansoni; summary value of abstract): 60% and ~ 60%
IC50 (Human TrxR): 20 nM
Viability of mammalian cells (mammalian cells): over 95%
IC50 (S. mansoni TGR [3]): 9 nM
IC50 (S. mansoni TGR [4]): 6 nM
